The text below walks through data of patent US7056945B1, “Selective inhibition of neuronal nitric oxide synthase” (priority 2002, dated 2006).

Assay [1] deals with wild type nNOS (Rattus norvegicus, UniProt P29476). The assay is described as follows: Ki for inhibition of wild type nNOS. The format is biochemical. From the text:
(§1) We next tested this hypothesis by producing D597N nNOS and N368D eNOS mutant proteins.

The target of assay [2] is T1, D597N nNOS mutant (Rattus norvegicus, UniProt P29476, D597N).
T1 construct: made in house
As to the kind of experiment: Ki for inhibition of D597N nNOS mutant. Format: biochemical.
Excerpt: as §1

Assay [3] addresses N368D eNOS mutant (Bos taurus, UniProt P29473, N368D). The assay is described as follows: Ki for inhibition of N368D eNOS mutant. The format is biochemical. The note with it: Asn368 replaced with Asp in eNOS (N368D eNOS mutant).
Excerpt: as §1

Assay [4] deals with NOS. To be noted: cited from earlier work.
The subject of assay [5] is all three NOS isoforms. The note with it: similar for all three NOS isoforms; cited from earlier work.

Structures are written as SMILES.

The term Ki denotes a measure of affinity in units of concentration, obtained from inhibition or displacement. Turning to `NC(=O)[C@@H]1C[C@@H](N)CN1C(=O)[C@@H](N)CCC/N=C(\N)N[N+](=O)[O-]` [DIP3, L-N^□-nitroarginine-(4R)-amino-L-proline amide], the Ki is 0.097 µM in assay [1], 21 µM in assay [2] and 5.1 µM in assay [3].

On to `N=C(NCCC[C@H](N)C(=O)O)N[N+](=O)[O-]` [L-NNA, L-N^ω-nitroarginine], for which the potency entry in assay [4] (L-NNA bound in the active site of eNOS (FIG. 1C legend)) is listed as “low nM”. Also, the “selectivity between NOS isoforms” value in assay [4] is “poor selectivity”.

For the compound `N=C(N)NCCC[C@H](N)C(=O)O` [L-arginine], the Km entry in assay [5] is reported as “low μM range”.
